In one test the target is wild-type Pcs60 (Saccharomyces cerevisiae, UniProt P38137). As to the kind of experiment: biochemical. The test is classed as binding, S. cerevisiae. On the procedure:
(§1) The following protocol was used for all nDSF experiments with Pcs60 and the nucleotide ligand γS-ATP. 14 dilutions of the nucleotide ligand (γS-ATP) starting at 5 mM at a constant Pcs60 concentration of 9.9 μM were prepared in buffer (50 mM HEPES pH 7.5, 150 mM NaCl, 0.5 mM TCEP). […] In addition to the ligand dilutions, a pure Pcs60 sample in the same buffer was used. If not stated otherwise, the measurements were run as triplicates (in total 45 temperature curves). The LED laser power for the experiments was between 70 and 80%.
Figure S29. (A) nDSF binding study for wild-type Pcs60 WT/γS-ATP. The region in the colored box was used for isothermal
analysis. […] (C) Isothermal analysis for […]

Test [1] has as its target T1, Pcs60 (Saccharomyces cerevisiae, UniProt P38137). It counts as binding, S. cerevisiae.
Test [2] addresses T1, Pcs60. The test can be described thus: Differential scanning calorimetry (DSC) of Pcs60 with γS-ATP. It counts as binding, S. cerevisiae. Conditions: Pcs60 180 µM, γS-ATP 192 µM. On the procedure: 2Differential scanning calorimetry of Pcs60
Figure S24. Differential scanning calorimetry (DSC) of Pcs60 (180 µM) in absence and presence of its ligand γS-ATP (192 µM). Here the raw data is shown before baseline correction. […] The […]
temperature of the ﬁrst transition is shifted by ligand binding from 41.5 to 43.4◦C. […]
affected upon ligand binding. Since the two transitions overlap, it was not possible to extract a reliable value of the heat capacity change upon unfolding ∆Cp.
(also on this page, place not known: 2 30 40 50 60 70 Temperature / C 11 10 9 8 7 6 DP / mJ/min PCS60 PCS60 + S-ATP Differential)
(1 picture or pasted object on this page, not shown here)

Test [3] concerns the target T1, Pcs60. It counts as binding, S. cerevisiae. The conditions noted are these: read-out: Kd (MST); Tref 21 °C; 1:1 model. On the procedure:
MST curves for Pcs60/ γ S-ATP were acquired with a Nanotemper Monolith NT.LabelFree (Nanotemper) using the MO.Control v1.6 acquisition software and Monolith NT.LabelFree capillaries. The same protein concentration and buffer conditions as for the nDSF experiments were used (9.9 μM). 16 different ligand concentrations (serial dilution with a factor of 2) in the range between 5 mM and 0.15 μM were used for each measurement. For the MST experiment the IR laser power was set to 20% and the UV laser power to 1%. In total, two independent measurements were done plus an additional repeat. The data was exported as xlsx and analyzed and plotted with a self-written Python script. The regions for Fnorm determination were − 1–0 s for “cold” and 19–20 s for “hot”. For each curve Fnorm was calculated as the ratio between the mean values in the “hot” and “cold” region. In the final step, Fnorm was fitted to a 1:1 binding model. The self-written Python scripts for spectral analysis including MST analysis are available online: https://github.com/steniegit/libspec

In the next test the target is Pcs60 K523A mutant (Saccharomyces cerevisiae, UniProt P38137, K523A). The test can be described thus: biochemical. The test is classed as binding, S. cerevisiae. On the procedure:
as §1

Another test concerns the target SS1 (Danio rerio, UniProt A0A0R4IMY7). It counts as binding, zebrafish.
A further test has as its target EG1 (Homo sapiens, UniProt Q9BW91). It counts as binding. Conditions: ADPR 2 mM to 24 nM.

Values joined by “and” are separate entries in the source; they are usually repeats but may differ in a detail not shown here. Equal entries are not always repeated. Where two headings read alike, the source gives them in different places.

Sequence of Pcs60 K523A mutant (P38137 whole entry K523A): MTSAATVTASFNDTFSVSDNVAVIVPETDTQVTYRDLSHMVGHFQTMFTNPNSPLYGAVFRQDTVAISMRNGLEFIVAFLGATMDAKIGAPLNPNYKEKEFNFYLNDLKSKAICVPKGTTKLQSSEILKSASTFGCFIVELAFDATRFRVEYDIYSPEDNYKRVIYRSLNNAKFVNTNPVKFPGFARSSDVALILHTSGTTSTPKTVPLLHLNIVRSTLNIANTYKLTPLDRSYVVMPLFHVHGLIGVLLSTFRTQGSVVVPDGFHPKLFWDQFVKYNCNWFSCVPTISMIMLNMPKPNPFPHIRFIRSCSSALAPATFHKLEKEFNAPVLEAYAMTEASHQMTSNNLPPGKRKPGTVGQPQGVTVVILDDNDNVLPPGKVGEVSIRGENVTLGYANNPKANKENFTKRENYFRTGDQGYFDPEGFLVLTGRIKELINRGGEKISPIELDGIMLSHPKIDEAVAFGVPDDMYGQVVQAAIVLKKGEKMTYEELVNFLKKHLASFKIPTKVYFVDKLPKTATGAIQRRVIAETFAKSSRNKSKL
T1 sequence (P38137 whole entry): as the sequence (P38137 whole entry K523A) above, with A523K counted along it
Sequence of wild-type Pcs60 (P38137 whole entry): as the sequence (P38137 whole entry K523A) above, with A523K counted along it
Sequence of EG1 (Q9BW91 59-350): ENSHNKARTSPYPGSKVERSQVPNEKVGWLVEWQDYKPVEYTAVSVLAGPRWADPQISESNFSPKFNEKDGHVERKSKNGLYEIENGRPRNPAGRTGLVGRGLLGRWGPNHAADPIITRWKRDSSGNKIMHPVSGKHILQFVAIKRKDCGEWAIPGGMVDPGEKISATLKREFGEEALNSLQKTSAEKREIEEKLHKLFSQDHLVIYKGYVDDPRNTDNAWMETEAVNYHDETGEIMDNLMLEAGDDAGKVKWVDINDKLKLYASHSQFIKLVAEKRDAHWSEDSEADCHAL
Sequence of SS1 (A0A0R4IMY7 32-415): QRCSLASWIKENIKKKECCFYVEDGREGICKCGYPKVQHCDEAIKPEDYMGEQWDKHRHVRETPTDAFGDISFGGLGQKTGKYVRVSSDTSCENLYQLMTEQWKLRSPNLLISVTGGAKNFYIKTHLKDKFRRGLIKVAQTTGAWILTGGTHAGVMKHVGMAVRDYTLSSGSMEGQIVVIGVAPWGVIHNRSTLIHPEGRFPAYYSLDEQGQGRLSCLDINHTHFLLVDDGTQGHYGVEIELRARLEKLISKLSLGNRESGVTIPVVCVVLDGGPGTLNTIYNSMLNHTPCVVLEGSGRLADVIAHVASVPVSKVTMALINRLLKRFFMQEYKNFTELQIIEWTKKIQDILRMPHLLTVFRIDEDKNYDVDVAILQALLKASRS

Regarding `Nc1ncnc2c1ncn2[C@@H]1O[C@H](CO[P@](=O)(O)O[P@](=O)(O)O[P@@](=O)(O)S)[C@@H](O)[C@H]1O` [γS-ATP], the Kd was 19.7 µM at wild-type Pcs60 (T=36 °C, ∆Cp = 0, read-out: Kd (isothermal analysis)); 20.2 µM on wild-type Pcs60 (T=38 °C, ∆Cp = 0, read-out: Kd (isothermal analysis)); 21 µM at wild-type Pcs60 (T=40 °C, ∆Cp = 0, read-out: Kd (isothermal analysis)); 22.5 µM on wild-type Pcs60 (T=42 °C, ∆Cp = 0, read-out: Kd (isothermal analysis)); 24.9 µM on wild-type Pcs60 (T=44 °C, ∆Cp = 0, read-out: Kd (isothermal analysis)); 28.7 µM at wild-type Pcs60 (T=46 °C, ∆Cp = 0, read-out: Kd (isothermal analysis)). Moreover, the Kd on wild-type Pcs60 (T=48 °C, ∆Cp = 0, read-out: Kd (isothermal analysis)) was 39.5 µM; at wild-type Pcs60 (T=50 °C, ∆Cp = 0, read-out: Kd (isothermal analysis)) it was 78 µM; on wild-type Pcs60 (T=52 °C, ∆Cp = 0, read-out: Kd (isothermal analysis)), 146 µM; on wild-type Pcs60 (isothermal analysis, read-out: Kd values (summary in legend)) it was around 20 µM; on wild-type Pcs60 (read-out: Kd,app Model 1 (melting temperature analysis)) it was 195 µM; on wild-type Pcs60 (read-out: Kd,app Model 2 (melting temperature analysis)), 15.6 µM. Besides, the Kd on Pcs60 [1] (T=36 °C, fitted ∆Cp = 6.7 kcal/molK, read-out: Kd (isothermal analysis, fitted ∆Cp)) was 14.9 µM; at Pcs60 [1] (T=38 °C, fitted ∆Cp = 6.7 kcal/molK, read-out: Kd (isothermal analysis, fitted ∆Cp)) it was 15.4 µM; on Pcs60 [1] (T=40 °C, fitted ∆Cp = 6.7 kcal/molK, read-out: Kd (isothermal analysis, fitted ∆Cp)) it was 17.1 µM; at Pcs60 [1] (T=42 °C, fitted ∆Cp = 6.7 kcal/molK, read-out: Kd (isothermal analysis, fitted ∆Cp)) it was 21.9 µM; at Pcs60 [1] (T=44 °C, fitted ∆Cp = 6.7 kcal/molK, read-out: Kd (isothermal analysis, fitted ∆Cp)) it was 32.4 µM; at Pcs60 [1] (T=46 °C, fitted ∆Cp = 6.7 kcal/molK, read-out: Kd (isothermal analysis, fitted ∆Cp)) it was 41.1 µM. Besides, the Kd on Pcs60 [1] (T=48 °C, fitted ∆Cp = 6.7 kcal/molK, read-out: Kd (isothermal analysis, fitted ∆Cp)) amounted to 27.8 µM; on Pcs60 [1] (Tiso 40 °C, ∆Cp = 0, read-out: Kd (isothermal analysis of nDSF)) it was 18.4 µM; at Pcs60 [1] (heating rate 1 °C/min, ∆Cp default 0 kcal/mol, Tsel 40 °C, read-out: Kd,Tsel), 18 µM; on Pcs60 [1] (heating rate 1 °C/min, ∆Cp fitted 6.7 kcal/mol, Tsel 38 °C, read-out: Kd,Tsel), 17 µM; on Pcs60 [1] (heating rate 3 °C/min, ∆Cp default 0 kcal/mol, Tsel 39 °C, read-out: Kd,Tsel) it was 16 µM; at Pcs60 [1] (heating rate 3 °C/min, ∆Cp fitted 6.7 kcal/mol, Tsel 39 °C, read-out: Kd,Tsel) it was 19 µM. The Kd at Pcs60 [1] (heating rate 5 °C/min, ∆Cp default 0 kcal/mol, Tsel 39 °C, read-out: Kd,Tsel) is 23 µM; on Pcs60 [1] (heating rate 5 °C/min, ∆Cp fitted 6.7 kcal/mol, Tsel 40 °C, read-out: Kd,Tsel), 24 µM; on Pcs60 [1] (read-out: Kd,app,model1 (melting temperature analysis), single-site model, Eq. (1), first transition), 144 µM; at Pcs60 [1] (read-out: Kd,app,model2 (melting temperature analysis), model 2, Eq. (4), first transition), 10.2 µM; on Pcs60 [3], 16 µM; on Pcs60 K523A mutant (Kd (isothermal analysis)), 252 µM and 297 µM and 246 µM and 236 µM and 227 µM and 219 µM and 212 µM and 221 µM. The Kd on Pcs60 K523A mutant (read-out: Kd (isothermal analysis of nDSF)) came out at 213 µM; on Pcs60 K523A mutant (read-out: Kd, melting temperature analysis model 1), 741 µM; at Pcs60 K523A mutant (read-out: Kd, melting temperature analysis model 2), 117 µM. Also, the “Tm (melting temperature range of binding study)” value at Pcs60 [1] (first transition) is 37–48 °C. In addition, on Pcs60 [2], the “second transition at […] (DSC) upon ligand binding” value is “not”. Also, the “temperature of the first transition (DSC) upon ligand binding” value at Pcs60 [2] (41.5 °C in absence of ligand) was 43.4 °C.

Take adenosine diphosphate ribose [ADPR]: the “Tm (melting temperature range of binding study)” value was 50–60 °C on SS1 and 51–56 °C on EG1.

(Values after paper PMC8099913, “FoldAffinity: binding affinities from nDSF experiments” (Scientific Reports, 2021).)
